Patent EP4810052A2, “HCRHR2 SELECTIVE POLYPEPTIDES” (Gubra A/S, priority 2023, dated 2026)
Read-outs that look alike come from different tables or passages of the source. Starred links: 1 amine or outer side, 2 acyl side, 3 side chain; linkers in the order of their positions; H or OH if unused. Non-standard residues stand in square brackets, D forms with d. Residues, ends and D or L forms follow the SMILES beside them. Groups on a side chain read outwards from the residue. *: point of attachment. C20 diacid = O=C(O)CCCCCCCCCCCCCCCCCCC(=O)*; γGlu = O=C(O)[C@H](CCC(=O)[*:2])N[*:1]; NMeI = CC[C@H](C)[C@H](NC)C(=O)O; Nle = CCCC[C@H](N)C(=O)O; AEEA = NCCOCCOCC(=O)O; Aib = CC(C)(N)C(=O)O

Key:
[1] = biological target: T1, hCRHR2 (Homo sapiens, UniProt Q13324); assay: HTRF cAMP assay, determination of hCRHR2 potency (peptide libraries 5 conc., purified peptides 11 conc.); format: cell-based
T1 sequence (Q13324 1-411): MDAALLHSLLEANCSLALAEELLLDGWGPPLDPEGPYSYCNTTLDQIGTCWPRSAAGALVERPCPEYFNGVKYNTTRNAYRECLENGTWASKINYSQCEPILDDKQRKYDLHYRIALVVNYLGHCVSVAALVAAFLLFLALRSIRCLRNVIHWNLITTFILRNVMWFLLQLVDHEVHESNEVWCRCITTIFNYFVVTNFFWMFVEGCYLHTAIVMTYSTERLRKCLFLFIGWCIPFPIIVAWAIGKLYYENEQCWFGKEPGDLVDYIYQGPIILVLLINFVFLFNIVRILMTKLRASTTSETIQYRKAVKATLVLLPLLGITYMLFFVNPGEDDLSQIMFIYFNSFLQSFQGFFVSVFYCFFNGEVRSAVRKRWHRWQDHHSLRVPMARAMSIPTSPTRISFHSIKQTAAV
How it was run: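 EC50 derived by variable-slope sigmoid regression of FRET-based cAMP data; cellular cAMP displaced d2-labelled tracer from cryptate anti-cAMP antibody. Stable human CRHR2 CHO-K1 suspension cells, revived from frozen stocks just before the run.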

[2] = biological target: T2, hCRHR1 (Homo sapiens, UniProt P34998); assay: HTRF cAMP assay, determination of hCRHR1 potency (peptide libraries 5 conc., purified peptides 11 conc.); format: cell-based
T2 sequence (P34998 24-415): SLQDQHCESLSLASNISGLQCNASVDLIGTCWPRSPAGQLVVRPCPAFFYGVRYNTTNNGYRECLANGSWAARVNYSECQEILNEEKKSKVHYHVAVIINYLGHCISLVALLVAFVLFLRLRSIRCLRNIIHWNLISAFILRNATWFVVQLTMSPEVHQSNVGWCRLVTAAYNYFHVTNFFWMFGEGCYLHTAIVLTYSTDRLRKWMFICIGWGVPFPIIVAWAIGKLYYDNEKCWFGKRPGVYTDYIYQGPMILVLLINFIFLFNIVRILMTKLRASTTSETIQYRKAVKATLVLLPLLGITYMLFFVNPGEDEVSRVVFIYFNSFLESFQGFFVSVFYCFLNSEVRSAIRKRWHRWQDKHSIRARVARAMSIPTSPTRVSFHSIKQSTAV
How it was run: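 Cellular cAMP was read by time-resolved FRET between d2-labelled cAMP and cryptate anti-cAMP antibody. The cells were freshly thawed suspension CHO-K1 cells stably expressing human CRHR1.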

[3] = library peptides, matched molecular pairs L vs Nle in position X^38, read-out: Potency hCRHR2 pEC50 (converted)
[4] = library peptides, matched molecular pairs L vs Nle in position X^38, read-out: Potency hCRHR1 pEC50 (converted)
[5] = Table 3, matched molecular pairs X^38 L vs Nle, peptide library of Example 4, read-out: hCRHR2 pEC50 (converted)
[6] = Table 3, matched molecular pairs X^38 L vs Nle, peptide library of Example 4, read-out: hCRHR1 pEC50 (converted)

CCCC[C@H](NC(=O)[C@@H](NC(=O)[C@H](CCC(=O)O)NC(=O)C(C)(C)NC(=O)[C@H](CC(N)=O)NC(=O)[C@@H](NC(=O)[C@H](CCCCNC(=O)COCCOCCNC(=O)COCCOCCNC(=O)CC[C@H](NC(=O)CC[C@H](NC(=O)CCCCCCCCCCCCCCCCCCC(=O)O)C(=O)O)C(=O)O)NC(=O)[C@H](C)NC(=O)[C@H](CCC(N)=O)NC(=O)[C@H](CCC(=O)O)NC(=O)[C@H](CCCNC(=N)N)NC(=O)[C@H](C)NC(=O)[C@H](C)NC(=O)[C@H](CCCNC(=N)N)NC(=O)[C@H](C)NC(=O)[C@H](CCCNC(=N)N)NC(=O)[C@H](C)NC(=O)[C@H](CCC(N)=O)NC(=O)[C@H](CC(C)C)NC(=O)[C@H](CC(C)C)NC(=O)[C@H](CC(C)C)NC(=O)[C@@H](NC(=O)[C@H](CCC(N)=O)NC(=O)[C@H](CC(C)C)NC(=O)[C@H](CC(C)C)NC(=O)CNC(=O)[C@@H](NC(=O)[C@@H]1CCCN1C(=O)[C@@H](NC(=O)[C@H](CC(=O)O)NC(=O)[C@H](CC(C)C)NC(=O)[C@H](CO)NC(=O)[C@H](CC(C)C)NC(=O)[C@@H](NC(=O)[C@@H](NC)[C@@H](C)CC)C(C)C)C(C)C)[C@@H](C)CC)[C@@H](C)CC)[C@@H](C)O)[C@@H](C)CC)C(=O)N[C@@H](C)C(=O)N[C@@H](CCC(=O)O)C(=O)N[C@H](C(N)=O)C(C)C [compound 229] (H-[NMeI]VLSLDVPIGLLQILLLQARARAAREQAK([AEEA-AEEA-γGlu-γGlu-C20 diacid])TN[Aib]EI[Nle]AEV-NH2)
EC50 ([1]; Table 4, library peptides having X^38 = Nle, read-out: hCRHR2 pEC50 (converted)): 79.4 pM
EC50 ([2]; Table 4, library peptides having X^38 = Nle, read-out: hCRHR1 pEC50 (converted)): 6.31 µM

CC[C@H](C)[C@H](N)C(=O)N[C@H](C(=O)N[C@@H](CC(C)C)C(=O)N[C@@H](CO)C(=O)N[C@@H](CC(C)C)C(=O)N[C@@H](CC(=O)O)C(=O)N[C@H](C(=O)N1CCC[C@H]1C(=O)N[C@H](C(=O)NCC(=O)N[C@@H](CC(C)C)C(=O)N[C@@H](CC(C)C)C(=O)N[C@@H](CCC(N)=O)C(=O)N[C@H](C(=O)N[C@@H](CC(C)C)C(=O)N[C@@H](CC(C)C)C(=O)N[C@@H](CCC(=O)O)C(=O)N[C@@H](CCC(N)=O)C(=O)N[C@@H](C)C(=O)N[C@@H](CCCNC(=N)N)C(=O)N[C@@H](C)C(=O)N[C@@H](CCCNC(=N)N)C(=O)N[C@@H](CO)C(=O)N[C@@H](CCC(N)=O)C(=O)N[C@@H](CCCNC(=N)N)C(=O)N[C@@H](CCC(=O)O)C(=O)N[C@@H](CCC(=O)O)C(=O)N[C@@H](C)C(=O)N[C@@H](CCCCNC(=O)COCCOCCNC(=O)COCCOCCNC(=O)CC[C@H](NC(=O)CC[C@H](NC(=O)CCCCCCCCCCCCCCCCCCC(=O)O)C(=O)O)C(=O)O)C(=O)N[C@H](C(=O)N[C@@H](CC(N)=O)C(=O)N[C@@H](C)C(=O)N[C@@H](CCC(=O)O)C(=O)N[C@H](C(=O)N[C@@H](CC(C)C)C(=O)N[C@@H](C)C(=O)N[C@@H](CCC(=O)O)C(=O)N[C@H](C(N)=O)C(C)C)[C@@H](C)CC)[C@@H](C)O)[C@@H](C)CC)[C@@H](C)CC)C(C)C)C(C)C [compound 70] (H-IVLSLDVPIGLLQILLEQARARSQREEAK([AEEA-AEEA-γGlu-γGlu-C20 diacid])TNAEILAEV-NH2)
EC50 [1, 3]: 1260 pM
EC50 [2, 4]: 158 µM

CC[C@H](C)[C@H](N)C(=O)N[C@H](C(=O)N[C@@H](CC(C)C)C(=O)N[C@@H](CO)C(=O)N[C@@H](CC(C)C)C(=O)N[C@@H](CC(=O)O)C(=O)N[C@H](C(=O)N1CCC[C@H]1C(=O)N[C@H](C(=O)NCC(=O)N[C@@H](CC(C)C)C(=O)N[C@@H](CC(C)C)C(=O)N[C@@H](CCC(N)=O)C(=O)N[C@H](C(=O)N[C@@H](CC(C)C)C(=O)N[C@@H](CC(C)C)C(=O)N[C@@H](CCC(=O)O)C(=O)N[C@@H](CCC(N)=O)C(=O)N[C@@H](C)C(=O)N[C@@H](CCCNC(=N)N)C(=O)N[C@@H](C)C(=O)N[C@@H](CCC(=O)O)C(=O)N[C@@H](C)C(=O)N[C@@H](C)C(=O)N[C@@H](CCCNC(=N)N)C(=O)N[C@@H](CCC(=O)O)C(=O)N[C@@H](CCC(N)=O)C(=O)N[C@@H](C)C(=O)N[C@@H](CCCCNC(=O)COCCOCCNC(=O)COCCOCCNC(=O)CC[C@H](NC(=O)CC[C@H](NC(=O)CCCCCCCCCCCCCCCCCCC(=O)O)C(=O)O)C(=O)O)C(=O)N[C@H](C(=O)N[C@@H](CC(N)=O)C(=O)N[C@@H](C)C(=O)N[C@@H](CCC(=O)O)C(=O)N[C@H](C(=O)N[C@@H](CC(C)C)C(=O)N[C@@H](C)C(=O)N[C@@H](CCC(=O)O)C(=O)N[C@H](C(N)=O)C(C)C)[C@@H](C)CC)[C@@H](C)O)[C@@H](C)CC)[C@@H](C)CC)C(C)C)C(C)C [SEQ ID NO: 25] (H-IVLSLDVPIGLLQILLEQARAEAAREQAK([AEEA-AEEA-γGlu-γGlu-C20 diacid])TNAEILAEV-NH2)
EC50 [1, 5]: 794 pM
EC50 [2, 6]: 6.31 µM

CC[C@H](C)[C@H](N)C(=O)N[C@H](C(=O)N[C@@H](CC(C)C)C(=O)N[C@@H](CO)C(=O)N[C@@H](CC(C)C)C(=O)N[C@@H](CC(=O)O)C(=O)N[C@H](C(=O)N1CCC[C@H]1C(=O)N[C@H](C(=O)NCC(=O)N[C@@H](CC(C)C)C(=O)N[C@@H](CC(C)C)C(=O)N[C@@H](CCC(N)=O)C(=O)N[C@H](C(=O)N[C@@H](CC(C)C)C(=O)N[C@@H](CC(C)C)C(=O)N[C@@H](CCC(=O)O)C(=O)N[C@@H](CCC(N)=O)C(=O)N[C@@H](C)C(=O)N[C@@H](CCCNC(=N)N)C(=O)N[C@@H](C)C(=O)N[C@@H](CCCNC(=N)N)C(=O)N[C@@H](CO)C(=O)N[C@@H](C)C(=O)N[C@@H](CCCNC(=N)N)C(=O)N[C@@H](CCC(=O)O)C(=O)N[C@@H](CCC(N)=O)C(=O)N[C@@H](C)C(=O)N[C@@H](CCCCNC(=O)COCCOCCNC(=O)COCCOCCNC(=O)CC[C@H](NC(=O)CC[C@H](NC(=O)CCCCCCCCCCCCCCCCCCC(=O)O)C(=O)O)C(=O)O)C(=O)N[C@H](C(=O)N[C@@H](CC(N)=O)C(=O)N[C@@H](C)C(=O)N[C@@H](CCC(=O)O)C(=O)N[C@H](C(=O)N[C@@H](CC(C)C)C(=O)N[C@@H](C)C(=O)N[C@@H](CCC(=O)O)C(=O)N[C@H](C(N)=O)[C@@H](C)CC)[C@@H](C)CC)[C@@H](C)O)[C@@H](C)CC)[C@@H](C)CC)C(C)C)C(C)C [SEQ ID NO: 35] (H-IVLSLDVPIGLLQILLEQARARSAREQAK([AEEA-AEEA-γGlu-γGlu-C20 diacid])TNAEILAEI-NH2)
EC50 [1, 5]: 501 pM
EC50 [2, 6]: 79.4 µM

CCCC[C@H](NC(=O)[C@@H](NC(=O)[C@H](CCC(=O)O)NC(=O)[C@H](C)NC(=O)[C@H](CC(N)=O)NC(=O)[C@@H](NC(=O)[C@H](CCCCNC(=O)COCCOCCNC(=O)COCCOCCNC(=O)CC[C@H](NC(=O)CC[C@H](NC(=O)CCCCCCCCCCCCCCCCCCC(=O)O)C(=O)O)C(=O)O)NC(=O)[C@H](C)NC(=O)[C@H](CCC(=O)O)NC(=O)[C@H](CCC(=O)O)NC(=O)[C@H](CCCNC(=N)N)NC(=O)[C@H](C)NC(=O)[C@H](C)NC(=O)[C@H](CCCNC(=N)N)NC(=O)[C@H](C)NC(=O)[C@H](CCCNC(=N)N)NC(=O)[C@H](C)NC(=O)[C@H](CCC(N)=O)NC(=O)[C@H](CCC(=O)O)NC(=O)[C@H](CC(C)C)NC(=O)[C@H](CC(C)C)NC(=O)[C@@H](NC(=O)[C@H](CCC(N)=O)NC(=O)[C@H](CC(C)C)NC(=O)[C@H](CC(C)C)NC(=O)CNC(=O)[C@@H](NC(=O)[C@@H]1CCCN1C(=O)[C@@H](NC(=O)[C@H](CC(=O)O)NC(=O)[C@H](CC(C)C)NC(=O)[C@H](CO)NC(=O)[C@H](CC(C)C)NC(=O)[C@@H](NC(=O)[C@@H](N)[C@@H](C)CC)C(C)C)C(C)C)[C@@H](C)CC)[C@@H](C)CC)[C@@H](C)O)[C@@H](C)CC)C(=O)N[C@@H](C)C(=O)N[C@@H](CCC(=O)O)C(=O)N[C@H](C(N)=O)[C@@H](C)CC [compound 75] (H-IVLSLDVPIGLLQILLEQARARAAREEAK([AEEA-AEEA-γGlu-γGlu-C20 diacid])TNAEI[Nle]AEI-NH2)
EC50 [1, 3]: 794 pM
EC50 [2, 4]: 158 µM
